According to patent publication US9120752B2, “Pyridine compounds as sodium channel blockers” (Purdue Pharma, L.P., priority 2010, dated 2015):

Legend:
[1] = tested on: FCA-induced inflammation of the rat hind paw; test: Freund's complete adjuvant (FCA) model of inflammatory pain, paw withdrawal threshold; type: in vivo
Procedure: Each experiment uses rats weighing between 200-260 g at the start of the experiment. The rats are group-housed and have free access to food and water at all times, except prior to oral administration of a test compound when food is removed for 16 hours before dosing. A control group acts as a comparison to rats treated with a compound of Formulae I-XIII. The control group is administered the carrier as used for the test compound. The volume of carrier administered to the control group is the same as the volume of carrier and test compound administered to the test group.
To assess the actions of the compounds of Formulae I-XIII on the treatment of inflammatory pain the Freund's complete adjuvant (“FCA”) model of inflammatory pain was used. […] 24 hour post injection, the animal was assessed for response to noxious mechanical stimuli by determining the paw withdrawal threshold (PWT), or to noxious thermal stimuli by determining the paw withdrawal latency (PWL), as described below. […] Responses to noxious mechanical or thermal stimuli were determined 1, 3, and 5 hours post administration (admin). […]
Sensitivity to noxious mechanical stimuli can be measured in animals using the paw pressure test to assess mechanical hyperalgesia. […] PWT is determined once for each rat at each time point. PWT can be measured only in the injured paw, or in both the injured and non-injured paw. […]

[2] = biological target: human Nav1.7 (Homo sapiens (Human), UniProt Q15858); test: FLIPR or FLIPR TETRA sodium dye assay with KCl and test article pre-incubation; type: cell-based; settings: sodium dye assay with KCl; recombinant Nav1.7/HEK293 cells; read-out: Nav1.7 IC50 (μM) ± SEM
Chain of human Nav1.7 (Q15858 other isoform, or with tags, fused parts or gaps): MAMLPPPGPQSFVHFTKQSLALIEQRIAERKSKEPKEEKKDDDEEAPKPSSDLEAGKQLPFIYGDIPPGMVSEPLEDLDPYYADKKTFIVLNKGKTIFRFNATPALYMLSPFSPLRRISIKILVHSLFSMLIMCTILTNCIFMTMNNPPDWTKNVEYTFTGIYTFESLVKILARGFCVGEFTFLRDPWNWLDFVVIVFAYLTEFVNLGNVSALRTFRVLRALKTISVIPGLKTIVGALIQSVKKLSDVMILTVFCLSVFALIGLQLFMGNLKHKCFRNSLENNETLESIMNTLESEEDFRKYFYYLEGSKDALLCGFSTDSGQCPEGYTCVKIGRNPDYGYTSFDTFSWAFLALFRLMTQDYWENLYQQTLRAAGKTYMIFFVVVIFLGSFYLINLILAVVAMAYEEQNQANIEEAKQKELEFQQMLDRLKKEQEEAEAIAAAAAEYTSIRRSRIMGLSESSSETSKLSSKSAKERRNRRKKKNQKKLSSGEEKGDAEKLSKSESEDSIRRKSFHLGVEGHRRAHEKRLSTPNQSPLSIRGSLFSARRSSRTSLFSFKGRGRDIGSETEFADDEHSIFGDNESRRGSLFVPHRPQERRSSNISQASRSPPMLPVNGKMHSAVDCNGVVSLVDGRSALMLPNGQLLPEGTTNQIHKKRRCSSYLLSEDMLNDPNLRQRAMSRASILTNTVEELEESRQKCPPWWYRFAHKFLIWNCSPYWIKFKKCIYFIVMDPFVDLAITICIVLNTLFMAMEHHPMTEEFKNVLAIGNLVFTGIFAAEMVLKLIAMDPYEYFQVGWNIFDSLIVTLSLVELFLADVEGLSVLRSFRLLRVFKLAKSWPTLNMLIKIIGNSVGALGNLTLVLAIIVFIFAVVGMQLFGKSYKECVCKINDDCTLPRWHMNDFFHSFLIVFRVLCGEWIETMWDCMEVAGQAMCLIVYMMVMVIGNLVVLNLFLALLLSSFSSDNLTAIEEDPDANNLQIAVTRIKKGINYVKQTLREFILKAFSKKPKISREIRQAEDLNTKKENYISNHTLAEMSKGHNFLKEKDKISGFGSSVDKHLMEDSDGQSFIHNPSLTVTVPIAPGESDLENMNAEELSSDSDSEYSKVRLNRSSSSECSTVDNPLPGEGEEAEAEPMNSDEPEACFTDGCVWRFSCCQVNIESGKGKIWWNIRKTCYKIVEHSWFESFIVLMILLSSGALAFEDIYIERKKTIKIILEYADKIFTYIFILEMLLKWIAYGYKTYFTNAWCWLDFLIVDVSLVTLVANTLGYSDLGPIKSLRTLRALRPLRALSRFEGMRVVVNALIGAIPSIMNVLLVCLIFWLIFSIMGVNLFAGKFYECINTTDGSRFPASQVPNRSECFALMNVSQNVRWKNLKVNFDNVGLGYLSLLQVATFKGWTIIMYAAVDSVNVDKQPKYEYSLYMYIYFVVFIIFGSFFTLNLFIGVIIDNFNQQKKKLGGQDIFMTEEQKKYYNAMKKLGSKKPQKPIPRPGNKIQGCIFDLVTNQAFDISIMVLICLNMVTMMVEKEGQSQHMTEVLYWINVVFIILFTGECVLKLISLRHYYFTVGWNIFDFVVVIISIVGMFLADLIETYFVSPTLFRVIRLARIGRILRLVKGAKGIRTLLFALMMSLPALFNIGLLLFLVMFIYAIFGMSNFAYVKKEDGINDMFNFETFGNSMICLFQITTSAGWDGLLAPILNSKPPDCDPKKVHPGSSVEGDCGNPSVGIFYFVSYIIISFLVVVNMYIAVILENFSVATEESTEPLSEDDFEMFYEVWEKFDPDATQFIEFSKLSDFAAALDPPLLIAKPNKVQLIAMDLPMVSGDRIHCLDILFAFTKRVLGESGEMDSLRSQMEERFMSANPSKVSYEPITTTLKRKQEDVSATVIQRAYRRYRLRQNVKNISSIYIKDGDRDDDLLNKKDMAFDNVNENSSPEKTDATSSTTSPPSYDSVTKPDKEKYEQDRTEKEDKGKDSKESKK

IC50 [2] [µM]	Structure (SMILES)	increase in PWT (paw withdrawal threshold) ([1]; 10 mg/kg, oral (PO), 3 h post administration)	increase in PWT (paw withdrawal threshold) ([1]; 30 mg/kg, oral (PO), 1, 3 and 5 h post administration)
1.53 ± 0.33	NC(=O)[C@H](CO)NC(=O)c1cccc(-c2ccc(Oc3ccc(F)cc3)cc2)n1 [Compound 47, 6-[4-(4-fluoro-phenoxy)-phenyl]-pyridine-2-carboxylic acid ((S)-1-carbamoyl-2-hydroxy-ethyl)-amide]	statistically significant increase	statistically significant increase
> 20	NC(=O)C[C@H](NC(=O)c1cc([C@@H](O)CO)cc(-c2ccc(Oc3ccc(F)cc3)cc2)n1)C(N)=O [Compound 66, (S)-2-(4-((R)-1,2-dihydroxyethyl)-6-(4-(4-fluorophenoxy)phenyl)picolinamido) succinamide]		
